Among the data in patent publication US11957759B1, “Rapidly accelerated fibrosarcoma (RAF) degrading compounds and associated methods of use” (Arvinas Operations, Inc., priority 2022, dated 2024) are DC50 and Dmax values, retold here.

Test [1] deals with T1, B-RAF V600E (Homo sapiens, UniProt P15056, V600E).
T1 construct: expressed in transfected cells; host or cells: T-Rex 293 cells (Invitrogen #R71007)
Put plainly: Target protein degradation, assay C: T-Rex 293 cells, HA-BRAF_V600E, 384 well format. It is filed as cell-based. The conditions noted are these: T-Rex 293 HA-BRAF_V600E cells, 24 hours, Examples 83-269; for DC50: Assay C; for Dmax: T-REx-293, Assay C. In a few lines: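 After 24 h exposure to an 11-point 1:3 series (300 nM–5 pM, 0.5% DMSO), fixed T-Rex 293 cells carrying HA-BRAF V600E (induced with 1 ng/mL doxycycline) were stained anti-HA and imaged. DC50 and Dmax were derived from BRAF intensity relative to control, and cytotoxicity from nuclear counts.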

Test [2] concerns the target T2, B-RAF G466V (Homo sapiens, UniProt P15056, G466V).
T2 construct: expressed in transfected cells; host or cells: T-Rex 293 cells (Invitrogen #R71007)
Put plainly: Target protein degradation, assay D: T-Rex 293 cells, HA-BRAF_G466V, 384 well format. The conditions noted are these: T-Rex 293 HA-BRAF_G466V cells, 24 hours, Examples 83-269; for DC50: Assay D; for Dmax: T-REx-293, Assay D. It is filed as cell-based. In a few lines:
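Degradation measured by high-content imaging of anti-HA immunofluorescence in fixed T-Rex 293 cells carrying inducible HA-BRAF G466V (1 ng/mL doxycycline), after 24 h PROTAC exposure at 37 °C over 300 nM–5 pM (1:3, 11 points, 0.5% DMSO). Outputs DC50 and Dmax as % of control; nuclei counts against DMSO wells gauge toxicity.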

By DC50 is commonly meant the midpoint of the concentration-degradation curve. Read a low DC50 as degradation at low concentration. As a reminder, the Dmax is the largest share of the target that was removed.

T1 sequence (P15056 whole entry V600E): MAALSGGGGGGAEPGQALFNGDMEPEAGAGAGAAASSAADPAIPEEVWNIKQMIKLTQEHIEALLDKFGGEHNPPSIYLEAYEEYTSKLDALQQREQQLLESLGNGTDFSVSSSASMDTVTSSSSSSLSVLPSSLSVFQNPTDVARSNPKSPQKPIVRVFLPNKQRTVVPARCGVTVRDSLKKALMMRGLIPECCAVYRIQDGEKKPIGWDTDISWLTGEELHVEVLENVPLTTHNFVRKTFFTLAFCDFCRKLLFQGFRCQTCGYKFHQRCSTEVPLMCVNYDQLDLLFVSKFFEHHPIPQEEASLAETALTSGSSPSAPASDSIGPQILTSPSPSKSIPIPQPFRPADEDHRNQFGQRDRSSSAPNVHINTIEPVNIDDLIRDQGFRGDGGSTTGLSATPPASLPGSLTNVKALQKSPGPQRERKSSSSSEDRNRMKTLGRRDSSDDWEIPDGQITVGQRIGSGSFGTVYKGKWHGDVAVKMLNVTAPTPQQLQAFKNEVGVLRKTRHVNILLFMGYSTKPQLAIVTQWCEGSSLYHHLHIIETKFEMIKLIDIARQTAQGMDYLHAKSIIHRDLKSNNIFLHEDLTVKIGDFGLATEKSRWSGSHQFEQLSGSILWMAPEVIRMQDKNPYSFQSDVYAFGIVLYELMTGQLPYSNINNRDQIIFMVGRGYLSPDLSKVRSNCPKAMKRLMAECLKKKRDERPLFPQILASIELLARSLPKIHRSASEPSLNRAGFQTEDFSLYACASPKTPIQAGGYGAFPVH
T2 sequence (P15056 whole entry G466V): as the sequence (P15056 whole entry V600E) above, with G466V, E600V counted along it

In test [1], `N#Cc1c(NS(=O)(=O)N2CC[C@@H](F)C2)ccc(F)c1Oc1ccc2ncn(-c3ccc(N4CCN(CC5CCN(c6ccc(N7CCC(=O)NC7=O)cc6)CC5)CC4)cc3)c(=O)c2c1` [Example 96, (3R)-N-{2-cyano-3-[(3-(4-[4-({1-[4-(2,4-dioxo-1,3-diazinan-1-yl)phenyl]piperidin-4-yl}methyl)piperazin-1-yl]phenyl}-4-oxo-3,4-dihydroquinazolin-6-yl)oxy]-4-fluorophenyl}-3-fluoropyrrolidine-1-sulfonamide] returned a half-maximal degradation concentration (DC50) of 5 to 50 nM and a Dmax of 35 to 70%. Also, in test [2], the DC50 lay within 1 to 10 nM and the Dmax was no more than 35%.
For `N#Cc1c(NS(=O)(=O)N2CC[C@@H](F)C2)ccc(F)c1Oc1ccc2ncn(-c3ccc(N4CC(CC5CN(c6ccc7c(c6)C(=O)N(C6CCC(=O)NC6=O)C7=O)C5)C4)nc3)c(=O)c2c1` (stereo partly drawn) [Example 159, (3R)-N-{2-cyano-3-[(3-{6-[3-({1-[2-(2,6-dioxopiperidin-3-yl)-1,3-dioxo-2,3-dihydro-1H-isoindol-5-yl]azetidin-3-yl}methyl)azetidin-1-yl]pyridin-3-yl}-4-oxo-3,4-dihydroquinazolin-6-yl)oxy]-4-fluorophenyl}-3-fluoropyrrolidine-1-sulfonamide], in that order: 50 to 500 nM, 35 to 70%, 1 to 10 nM and no more than 35%.
In the case of `N#Cc1c(NS(=O)(=O)N2CC[C@@H](F)C2)ccc(F)c1Oc1ccc2ncn(-c3ccc(N4CCC5(CC4)CN(CC4CCN(c6ccc7c(c6)CN([C@@H]6CCC(=O)NC6=O)C7=O)CC4)C5)cc3)c(=O)c2c1` [Example 203, (3R)-N-(2-cyano-3-{[3-(4-{2-[(1-{2-[(3R)-2,6-dioxopiperidin-3-yl]-1-oxo-2,3-dihydro-1H-isoindol-5-yl}piperidin-4-yl)methyl]-2,7-diazaspiro[3.5]nonan-7-yl}phenyl)-4-oxo-3,4-dihydroquinazolin-6-yl]oxy}-4-fluorophenyl)-3-fluoropyrrolidine-1-sulfonamide], the DC50 in test [1] lay within 50 to 500 nM; in test [2], 1 to 10 nM. The Dmax in test [1] and in test [2] was 35 to 70% each time.
In test [1], `N#Cc1c(NS(=O)(=O)N2CC[C@@H](F)C2)ccc(F)c1Oc1ccc2ncn(-c3ccc(N4CCC(CN5CCN(CC6CCN(c7ccc8c(c7)CN([C@@H]7CCC(=O)NC7=O)C8=O)CC6)CC5)CC4)cc3)c(=O)c2c1` [Example 186, (3R)-N-{2-cyano-3-[(3-{4-[4-({4-[(1-{2-[(3R)-2,6-dioxopiperidin-3-yl]-1-oxo-2,3-dihydro-1H-isoindol-5-yl}piperidin-4-yl)methyl]piperazin-1-yl}methyl)piperidin-1-yl]phenyl}-4-oxo-3,4-dihydroquinazolin-6-yl)oxy]-4-fluorophenyl}-3-fluoropyrrolidine-1-sulfonamide] yielded a DC50 of 50 to 500 nM and a Dmax of 35 to 70%. Also, in test [2], the DC50 is 10 to 30 nM and the Dmax is no more than 35%.
For `N#Cc1c(NS(=O)(=O)N2CC[C@@H](F)C2)ccc(F)c1Oc1ccc2ncn(-c3cnc(N4CCN(CCN5CCN(c6ccc7c(c6)CN(C6CCC(=O)NC6=O)C7=O)CC5)CC4)nc3)c(=O)c2c1` (stereo partly drawn) [Example 151, (3R)-N-{2-cyano-3-[(3-{2-[4-(2-{4-[2-(2,6-dioxopiperidin-3-yl)-1-oxo-2,3-dihydro-1H-isoindol-5-yl]piperazin-1-yl}ethyl)piperazin-1-yl]pyrimidin-5-yl}-4-oxo-3,4-dihydroquinazolin-6-yl)oxy]-4-fluorophenyl}-3-fluoropyrrolidine-1-sulfonamide] the same measures were 5 to 50 nM, 35 to 70%, 1 to 10 nM and 35 to 70%.
